Results taken from ChEMBL document CHEMBL6153138, “Discovery of Novel Aromatic Urea-Imidazole Salt Derivatives for Cancer Therapy via Targeting ERK1/2” (J Med Chem, 2025).
The source made the active and inactive calls. The calls are words filed in the database; no cut-off is given here.

Assays:
[1] = Toxicity in female BALB/c mouse assessed as effect on spleen at 25 to 50 mg/kg, po qd measured after 18 days by H and E staining based analysis; assay type: organism-based; details: in vivo, 432 h, dose 25-50 mg/kg, time 18 day
[2] = Toxicity in female BALB/c mouse assessed as effect on heart at 50 mg/kg, po qd measured after 18 days in presence of chloroquine by H and E staining based analysis; assay type: organism-based; details: in vivo, 432 h, time 18 day
4T1 [3] = assay: Antitumor activity against mouse 4T1 cells implanted in female BALB/c mouse model assessed as reduction in tumor growth administered po qd measured for 18 days; assay type: functional, organism-based; details: dose 25-50 mg/kg, time 18.0 day
MCF7 [4] = assay: Upregulation of C-caspase3 protein expression in human MCF-7 cells at 1 uM incubated for 6 hrs in presence of 3-methyladenine by Western blot analysis; assay type: functional, cell-based
MCF7 [5] = assay: Induction of autophagic flux in human MCF7 cells assessed as decrease in p62 protein level at 0.5 to 2 uM incubated for 48 hrs by Western blotting analysis; assay type: functional, cell-based; details: dose 0.5-2 µM
MCF7 [6] = assay: Induction of apoptosis in human MCF7 cells assessed as late apoptotic cells at 0.5 uM incubated for 48 hrs by Annexin V/FITC and PI staining based flow cytometry analysis (reference value: 2.5%); assay type: functional
4T1 [7] = assay: Antitumor activity against mouse 4T1 cells implanted in female BALB/c mouse model assessed as tumor growth inhibition at 50 mg/kg, po qd measured for 18 days in presence of chloroquine relative to control; assay type: functional; details: 4T1, 432 h, time 18 day, read-out: TGI
MCF7 [8] = assay: Induction of autophagic flux in human MCF7 cells assessed as appearance of multi membrane structure at 0.5 to 2 uM by TEM based analysis; assay type: functional, cell-based; details: dose 0.5-2 µM
[9] = AUC (0 to t) in Sprague-Dawley rat at 10 mg/kg, po by LC-MS/MS analysis; assay type: ADME, organism-based; details: in vivo
Mitochondrial membrane = assay: Induction of mitochondrial membrane potential loss in human MCF7 cells assessed as reduction in JC-1 aggregates by measuring decrease in red fluorescence at 2 uM by flow cytometry analysis (reference value: 24.7%); assay type: cell membranes; parameters: scale not given: the % may be the effect or the level left
[10] = Toxicity in female BALB/c mouse assessed as effect TP level in serum at 25 to 50 mg/kg, po qd measured after 18 days by biochemical analysis; assay type: organism-based; details: in vivo, 432 h, dose 25-50 mg/kg, time 18 day
[11] = target: Mitogen-activated protein kinase 1 (Homo sapiens, UniProt P28482); assay: Induction of thermal stabilization of ERK2 (unknown origin) at 10 uM by differential scanning fluorimetry analysis
4T1-Luc = assay: Anti-metastatic activity in mouse 4T1-Luc cells assessed as reduction in fluorescence intensity at 25 to 50 mg/kg, po measured after 16 days; assay type: functional, organism-based; details: dose 25-50 mg/kg, time 16.0 day
4T1 [12] = assay: Antitumor activity against mouse 4T1 cells implanted in female BALB/c mouse model assessed as reduction in number of PCNA-positive proliferative cells at 25 to 50 mg/kg, po qd by immunohistochemical analysis; assay type: functional, organism-based; details: dose 25-50 mg/kg
MCF7 [13] = assay: Downregulation of total c-Myc expression in human MCF7 cells at 0.5 to 2 uM measured after 30 mins to 4 hrs by Western blot analysis; assay type: functional, cell-based; details: dose 0.5-2 µM, time 30-240 min
[14] = Cmax in Sprague-Dawley rat at 1 mg/kg, iv by LC-MS/MS analysis; assay type: ADME, organism-based; details: in vivo
MCF7 [15] = assay: Induction of apoptosis in human MCF7 cells assessed as increase in PARP1 level at 0.5 to 2 uM by Western blot analysis; assay type: functional, cell-based; details: dose 0.5-2 µM
[16] = Toxicity in female BALB/c mouse assessed as effect on tumor at 50 mg/kg, po qd measured after 18 days in presence of chloroquine by H and E staining based analysis; assay type: organism-based; details: in vivo, 432 h, time 18 day
MCF7 [17] = assay: Upregulation of ERK1/2 phosphorylation expression in human MCF7 cells at 2 uM measured after 8 hrs by immunofluorescence analysis; assay type: functional, cell-based
[18] = target: Macrophage colony-stimulating factor 1 receptor (Homo sapiens) (UniProt P07333); assay: Inhibition of human FMS at 10000 nM by DiscoverX KINOMEscan assay relative to control
MCF7 [19] = assay: Induction of apoptosis in human MCF7 cells assessed as early apoptotic cells at 1 uM incubated for 48 hrs by Annexin V/FITC and PI staining based flow cytometry analysis (reference value: 1.1%); assay type: functional
MCF7 [20] = assay: Induction of autophagic flux in human MCF7 cells assessed as colocalization of LC3B at 1 uM incubated for 48 hrs in presence of chloroquine by immunofluorescence analysis; assay type: functional, cell-based
[21] = Toxicity in female BALB/c mouse assessed as effect on lung at 25 to 50 mg/kg, po qd measured after 18 days by H and E staining based analysis; assay type: organism-based; details: in vivo, 432 h, dose 25-50 mg/kg, time 18 day
4T1 [22] = assay: Antitumor activity against mouse 4T1 cells implanted in female BALB/c mouse model assessed as increase in tumor cell necrosis at 50 mg/kg, po qd measured for 18 days in presence of chloroquine; assay type: functional, organism-based; details: time 18.0 day
4T1 [23] = assay: Antitumor activity against mouse 4T1 cells implanted in female BALB/c mouse model assessed as reduction in number of Ki67-positive proliferative cells at 25 to 50 mg/kg, po qd by immunohistochemical analysis; assay type: functional, organism-based; details: dose 25-50 mg/kg
[24] = target: Ribosomal protein S6 kinase alpha-1 (Homo sapiens, UniProt Q15418); assay: Inhibition of RSK1 (unknown origin) incubated for 60 mins by luminescence based ADP-Glo kinase assay
MDA-MB-468 = assay: Antiproliferative activity against human MDA-MB-468 cells incubated for 48 hrs by CCK-8 method; assay type: functional, cell-based; details: MDA-MB-468, 48 h
MCF7 [25] = assay: Induction of autophagy in human MCF7 cells assessed as upregulation of beclin1 expression incubated for 48 hrs by Western blotting analysis; assay type: functional, cell-based; details: dose 0.5-2 µM
MCF7 [26] = assay: Induction of autophagy in human MCF7 cells assessed as increase in LC3B-II level at 1 uM by Western blot analysis; assay type: functional, cell-based
[27] = Toxicity in female BALB/c mouse assessed as effect on liver at 50 mg/kg, po qd measured after 18 days in presence of chloroquine by H and E staining based analysis; assay type: organism-based; details: in vivo, 432 h, time 18 day
[28] = Clearance in Sprague-Dawley rat at 1 mg/kg, iv by LC-MS/MS analysis; assay type: ADME, organism-based; details: in vivo
4T1 [29] = assay: Antitumor activity against mouse 4T1 cells implanted in female BALB/c mouse model assessed as reduction in p-90RSK phosphorylation level at 50 mg/kg, po qd by immunohistochemical analysis; assay type: functional, organism-based
MCF7 [30] = assay: Induction of apoptosis in human MCF7 cells assessed as early apoptotic cells at 1 uM incubated for 48 hrs in presence of 3-methyladenine by Annexin V/FITC and PI staining based flow cytometry analysis (reference value: 8.14%); assay type: functional

Macrophage colony-stimulating factor 1 receptor (Homo sapiens), sequence (P07333 whole entry): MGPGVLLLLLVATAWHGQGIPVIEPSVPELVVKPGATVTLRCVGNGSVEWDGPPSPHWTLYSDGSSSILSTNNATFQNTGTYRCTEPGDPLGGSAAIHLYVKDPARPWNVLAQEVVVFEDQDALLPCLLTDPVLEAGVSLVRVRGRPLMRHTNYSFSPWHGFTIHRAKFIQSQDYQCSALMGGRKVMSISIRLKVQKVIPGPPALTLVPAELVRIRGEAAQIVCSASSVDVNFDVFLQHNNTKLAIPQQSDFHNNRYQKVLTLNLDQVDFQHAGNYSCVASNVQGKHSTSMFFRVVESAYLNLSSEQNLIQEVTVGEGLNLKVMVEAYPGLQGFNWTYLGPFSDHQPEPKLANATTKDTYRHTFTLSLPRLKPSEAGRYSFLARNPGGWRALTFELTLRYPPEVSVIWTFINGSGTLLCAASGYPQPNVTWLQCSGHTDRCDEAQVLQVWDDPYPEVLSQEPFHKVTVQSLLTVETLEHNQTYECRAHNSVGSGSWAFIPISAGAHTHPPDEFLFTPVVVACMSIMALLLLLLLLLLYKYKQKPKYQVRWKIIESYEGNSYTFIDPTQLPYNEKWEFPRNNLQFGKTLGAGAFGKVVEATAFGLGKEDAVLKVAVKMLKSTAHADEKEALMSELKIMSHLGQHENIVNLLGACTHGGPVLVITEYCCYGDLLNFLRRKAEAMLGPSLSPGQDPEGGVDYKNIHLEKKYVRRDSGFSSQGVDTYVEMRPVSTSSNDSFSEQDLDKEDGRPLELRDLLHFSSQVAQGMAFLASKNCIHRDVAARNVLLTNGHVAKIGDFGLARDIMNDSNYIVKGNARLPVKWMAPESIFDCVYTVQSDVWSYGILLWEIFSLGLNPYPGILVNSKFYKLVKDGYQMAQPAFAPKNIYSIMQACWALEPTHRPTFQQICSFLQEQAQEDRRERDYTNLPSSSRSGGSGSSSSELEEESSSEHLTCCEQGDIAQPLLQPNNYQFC
Mitogen-activated protein kinase 1, sequence (P28482 whole entry): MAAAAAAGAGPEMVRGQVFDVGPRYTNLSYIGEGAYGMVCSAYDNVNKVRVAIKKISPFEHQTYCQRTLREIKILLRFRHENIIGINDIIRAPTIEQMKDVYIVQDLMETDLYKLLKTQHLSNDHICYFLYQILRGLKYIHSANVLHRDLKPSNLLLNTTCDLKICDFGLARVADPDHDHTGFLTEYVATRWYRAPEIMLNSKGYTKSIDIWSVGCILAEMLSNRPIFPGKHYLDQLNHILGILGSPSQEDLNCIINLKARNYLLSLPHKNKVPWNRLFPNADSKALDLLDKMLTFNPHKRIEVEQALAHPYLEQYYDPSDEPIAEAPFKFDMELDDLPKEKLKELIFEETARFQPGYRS
Ribosomal protein S6 kinase alpha-1, sequence (Q15418 whole entry): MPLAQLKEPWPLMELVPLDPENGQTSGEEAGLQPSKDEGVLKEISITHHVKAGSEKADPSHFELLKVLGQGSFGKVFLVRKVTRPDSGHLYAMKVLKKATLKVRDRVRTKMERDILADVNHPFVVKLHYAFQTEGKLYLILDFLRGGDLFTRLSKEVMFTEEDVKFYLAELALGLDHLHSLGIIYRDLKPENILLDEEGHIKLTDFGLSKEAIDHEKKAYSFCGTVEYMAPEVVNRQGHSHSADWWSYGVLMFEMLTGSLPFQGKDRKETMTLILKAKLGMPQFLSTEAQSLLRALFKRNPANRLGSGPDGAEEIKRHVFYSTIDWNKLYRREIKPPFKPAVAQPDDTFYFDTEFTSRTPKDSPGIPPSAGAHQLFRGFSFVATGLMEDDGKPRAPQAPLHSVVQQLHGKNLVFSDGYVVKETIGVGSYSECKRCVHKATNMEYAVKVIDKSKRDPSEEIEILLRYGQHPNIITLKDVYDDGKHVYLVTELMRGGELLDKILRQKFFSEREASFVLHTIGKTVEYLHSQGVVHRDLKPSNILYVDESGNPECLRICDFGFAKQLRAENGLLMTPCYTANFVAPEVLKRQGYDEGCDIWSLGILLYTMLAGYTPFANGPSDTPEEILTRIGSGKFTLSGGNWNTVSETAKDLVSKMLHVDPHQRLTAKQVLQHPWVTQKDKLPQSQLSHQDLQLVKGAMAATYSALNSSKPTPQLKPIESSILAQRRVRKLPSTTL

O=C(Nc1cc(C(F)(F)F)cc(C(F)(F)F)c1)N[C@@H](Cc1ccccc1)Cn1c[n+](Cc2ccc3ccccc3c2)c2ccccc21.[Br-]
Activity [1]: Non-toxic | Activity [2]: Non-toxic | Activity (4T1 [3]): Dose-dependent-effect | Activity (MCF7 [4]): Active | Activity (MCF7 [5]): Active | Activity (MCF7 [6]): 7.8% | inhibition in vivo at 50 mg/kg (4T1 [7]): 88.1% | Activity (MCF7 [8]): Active | AUC(0-t) [9]: 3910 ng·h/mL | Activity (Mitochondrial membrane): 5.4% | Activity [10]: Non-toxic | Activity [11]: Active | Activity (4T1-Luc): Active | Activity (4T1 [12]): Active | Activity (MCF7 [13]): Active | Cmax [14]: 534 ng/mL | Activity (MCF7 [15]): Active | Activity [16]: Non-toxic | Activity (MCF7 [17]): Active | inhibition [18]: 19% | Activity (MCF7 [19]): 11.6% | Activity (MCF7 [20]): Active | Activity [21]: Non-toxic | Activity (4T1 [22]): Active | Activity (4T1 [23]): Active | IC50 [24]: 674 nM | IC50 (MDA-MB-468): 2150 nM | Activity (MCF7 [25]): Dose-dependent-effect | Activity (MCF7 [26]): Active | Activity [27]: Non-toxic | clearance [28]: 15.2 mL/min/kg | Activity (4T1 [29]): Active | Activity (MCF7 [30]): 3.81%
